Experimental data from patent US20070048812A1, “Cell-based luminogenic and nonluminogenic proteasome assays” (priority 2005, published 2007).
Marks after values point to notes of the source that are not given here. *1 amine or outer side, *2 acyl side, *3 side chain or, on linkers, in order; H or OH if unused. Where no end group is shown, it is not given here. [ ]: non-standard residue; d: D form. The star is where a group is joined. aminoluciferin = O=C(O)[C@H]1CSC(c2nc3ccc(N*)cc3s2)=N1; AFC = O=c1cc(C(F)(F)F)c2ccc(N*)cc2o1; AMC = Cc1cc(=O)oc2cc(N*)ccc12; Suc = O=C(CCC(=O)[*:2])[*:1]; code Z = not defined here; Cbz = O=C(OCc1ccccc1)*

What was measured:
[1] = system: untreated viable HL-60 or Jurkat cells; test: Protease retention: substrate cleavage in untreated viable cells; assay type: cell-based; set-up: key: None denotes no statistical activity above control population.; (+) to (+++++) denotes the range of activity above control population from modest to robust; (+) to (+++++) denotes the range of activity above control population from modest to robust; (+) to (+++++) denotes the range of activity above control population from modest to robust; (+) to (+++++) denotes the range of activity above control population from modest to robust; (+) to (+++++) denotes the range of activity above control population from modest to robust; details: proteolytic activity on substrate in untreated viable HL-60 or Jurkat cells, above control population; 15-30 min 37° C.
Method: (§1) All substrates were solubilized in DMSO from 10 to 100 mM depending upon inherent solubility. Fluorescent substrates were diluted to 100 μM to 1 mM in 10 mM Hepes, pH 7.5 or matched cell culture medium with 10% serum and added in 1/10th volumes to lysed (freeze fractured, sonicated, or detergent) or untreated viable cells in white-walled, clear bottomed 96-well plates. HL-60 or Jurkat were used in the experimentation interchangeably because of their easily manipulated suspension phenotype. Plates were incubated for 15-30 minutes at 37° C. prior to measuring fluorescence by the CytoFluor II.
(§2) Luminescent substrates were added to a luciferin detection cake (Promega V859A) resuspended in 2 ml 10 mM Hepes, pH 7.5 to 500 μM. ⅕^th volume of the proluminescent reaction mixes were added to lysed (freeze fractured, sonicated, or detergent) or untreated viable cells in white-walled, clear bottomed 96-well plates. Again, HL-60 or Jurkat were used in the experimentation interchangeably. Plates were incubated at 37° C. in a MeCour' circulating heat block controlled by a Caron 2050 W exchange unit. Luminescence was measured between 15 and 30 minutes (signal steady state).
(§3) A broad variety of proteolytic substrates were examined in an effort to characterize potential substrate preferences for protease release or retention in compromised or viable cells (see Table 3). […] Non-blocked substrates (H- and the like) were examined to include the contribution of aminopeptidase activities. From this panel, at least three proteolytic profiles emerged: an aminopeptidase-like activity preferring unblocked Ala-Ala-Phe tripeptide, a proteosomal (chymotrypsin-like) activity measured by release of blocked Leu-Leu-Val-Tyr (SEQ ID NO:1) peptides, and an exceedingly labile activity by Gly-Phe, Gly-Ala, Phe-, Tyr- or Gly-Gly-Leu substrates. The latter activities were only measurable in viable, intact cells. Of further significance is that several fluorophores or proluminescent labels can be used to detect these activities, ultimately allowing for enhanced downstream multiplexing flexibility.

[2] = system: lysed HL-60 or Jurkat cells; test: Protease release: substrate cleavage in lysed (compromised) cells; assay type: cell-based; set-up: key: None denotes no statistical activity above control population.; (+) to (+++++) denotes the range of activity above control population from modest to robust; (+) to (+++++) denotes the range of activity above control population from modest to robust; (+) to (+++++) denotes the range of activity above control population from modest to robust; (+) to (+++++) denotes the range of activity above control population from modest to robust; (+) to (+++++) denotes the range of activity above control population from modest to robust; details: proteolytic activity on substrate in lysed (freeze fractured, sonicated or detergent) HL-60 or Jurkat cells, above control population; 15-30 min 37° C.
Method: as §1, §2, §3

[3] = system: proteasome or luciferase activity in HL-60 cells; test: Screen of cell membrane permeabilization reagents in cell-based luminescent proteasome reaction; details: 25,000 HL-60 cells, detergent 0.05 and 0.1% final, 22° C., LLVY-aminoluciferin
Method: FIGS. 10A-C. Screen for cell membrane permeabilization reagents suitable to detect proteasomes in a cell-based luminescent reaction.
Other permeabilizing agents were screened for those suitable to detect proteasome activity in a cell-based assay (FIGS. 10A-C). Reagents containing low concentrations of various detergents (0.05 and 0.1% final) were prepared. 100 μl/well samples containing 25,000 HL-60 cells in complete medium were added to a 96-well plate and equilibrated at 37° C. The plate and reagents were cooled to 22° C. and an equal volume of reagent was added to each sample. The plate was shaken for 1 minute, then incubated at 22° C. Luminescence was then determined over time.

SK-MEL-28 cells = test: Multiplexed protease retention (Gly-Phe-AFC) and Caspase-Glo 3/7 assay; assay type: cell-based; details: serial dilutions, 5 hours
Method: (§4) SK-MEL-28 or ACHN cells were seeded into white-walled, clear bottomed 96 well plates at a density of 10,000 cells per well in 100 μl volumes and allowed to attach at 37° C. in 5% CO2 for a period of 2 hours. After attachment, 50 μl of medium was carefully removed and replaced with serial dilutions of either ionomycin or staurosporine in MEM+10% FBS. Medium only served as control. The plate was incubated for an additional 5 hours. A 1 mM solution of Gly-Phe-AFC was made in MEM and added to the wells in a 1/10th volume. Resulting fluorescence was measured using a CytoFluor II. Caspase-Glo™ 3/7 reagent was then added and luminescence measure using a BMG FLUOstar Optima.

[4] = system: proteasome activity in HL-60 cells; test: Cell-based luminescent proteasome assay in HL-60 cells; details: 1.5 hour treatment (FIG. 2B)
ACHN cells = test: Multiplexed protease retention (Gly-Phe-AFC) and Caspase-Glo 3/7 assay; assay type: cell-based; details: serial dilutions, 5 hours
Method: as §4

## Ac-Ala-Ala-Tyr-{AMC}
[1]
  Retention: None
[2]
  Release: None

## Triton X-100
[3]
  effect on proteasome or luciferase activity: did not substantially effect

## Glutyl-Ala-Ala-Phe-AMC [Gluty-Ala-Ala-Phe-AMC]
[1]
  Retention: None
[2]
  Release: None

## CCCCCCCCCCCCOS(=O)(=O)[O-].[Na+] [SDS]
[3]
  effect on proteasome or luciferase activity: negative effects

## Ala-Ala-Phe-aminoluciferin
[1]
  Retention: None
[2]
  Release: ++++

## H-Gly-Ala-{AMC}
[1]
  Retention: ++
[2]
  Release: None

## Tween®-20
[3]
  effect on proteasome or luciferase activity: negative effects

## Tergitol® NP-9
[3]
  effect on proteasome or luciferase activity: did not substantially effect

## Suc-Arg-Pro-Phe-His-Leu-Leu-Val-Tyr-AMC (Suc-RPFHLLVY-{AMC}; SMILES Cc1cc(=O)oc2cc(NC(=O)[C@H](Cc3ccc(O)cc3)NC(=O)[C@@H](NC(=O)[C@H](CC(C)C)NC(=O)[C@H](CC(C)C)NC(=O)[C@H](Cc3c[nH]cn3)NC(=O)[C@H](Cc3ccccc3)NC(=O)[C@@H]3CCCN3C(=O)[C@H](CCCNC(=N)N)NC(=O)CCC(=O)O)C(C)C)ccc12) [S-R-P-F-H-L-L-V-Y-AMC]
[1]
  Retention: None
[2]
  Release: None

## Ala-Ala-Phe-{AMC}
[1]
  Retention: None
[2]
  Release: ++++

## Cbz-Gly-Gly-Leu-{AMC}
[1]
  Retention: ++*
[2]
  Release: None

## Cbz-Phe-Arg-{AMC}
[1]
  Retention: None^1
[2]
  Release: None

## Z-Arg-Leu-Arg-Gly-Gly-AMC (RLRGG; Z N-terminal, AMC C-terminal)
[1]
  Retention: None
[2]
  Release: None

## Cc1cc(=O)oc2cc(NC(=O)[C@@H](N)Cc3ccccc3)ccc12 [H-Phe-AMC]
[1]
  Retention: +++
[2]
  Release: None

## H-Pro-Phe-Arg-{AMC}
[1]
  Retention: None
[2]
  Release: None

## Z-Leu-Arg-aminoluciferin [Z-Leu-Arg-Aluc]
[1]
  Retention: None
[2]
  Release: None

## C[C@H](CCC(=O)O)C[C@H](C)C[C@H](C)C(=O)/C=C(\O)[C@H](C)C[C@H](C)C/C=C/[C@@H](C)[C@@H](O)[C@@H](C)[C@@H](O)C[C@@H]1CC[C@@](C)([C@H]2CC[C@@](C)([C@@H](C)O)O2)O1 [ionomycin]
SK-MEL-28 cells
  cytotoxicity profile (protease retention viability and caspase 3/7 activity): necrotic-type profile

## H-Gly-Phe-{AMC}
[1]
  Retention: ++
[2]
  Release: None

## Z-Phe-Arg-aminoluciferin [Z-Phe-Arg-Aluc]
[1]
  Retention: None
[2]
  Release: None

## Z-Leu-Arg-Gly-Gly-AMC (LRGG; Z N-terminal, AMC C-terminal)
[1]
  Retention: None
[2]
  Release: None

## Cbz-Gly-Ala-Met-{AMC}
[1]
  Retention: None
[2]
  Release: None

## CCCC[C@@H](C=O)NC(=O)[C@H](CC(C)C)NC(=O)OCc1ccccc1 [Calpeptin, calpeptin]
[4]
  effect on proteasome activity: minimal effect

## Gly-Phe-{AFC}
[1]
  Retention: ++++
[2]
  Release: None

## Z-Leu-Leu-Val-Tyr-aminoluciferin ({code Z}-LLVY-aminoluciferin; reading uncertain; also: printed as Z-Leu-Leu-Val-Tyr-aminoluciferin) [Z-Leu-Leu-Val-Tyr-Aluc]
[1]
  Retention: None
[2]
  Release: ++

## CN[C@@H]1C[C@H]2O[C@@](C)([C@@H]1OC)n1c3ccccc3c3c4c(c5c6ccccc6n2c5c31)C(=O)NC4 [staurosporine]
ACHN cells
  cytotoxicity profile (protease retention viability and caspase 3/7 activity): apoptotic profile
SK-MEL-28 cells
  cytotoxicity profile (protease retention viability and caspase 3/7 activity): caspase activation (and therefore apoptosis induction) is evident

## (Gly-Phe)2-R110 [(Gly-Phe)2 R110]
[1]
  Retention: None
[2]
  Release: None

## H-[dA]-Leu-Lys-{AMC}
[1]
  Retention: None
[2]
  Release: None

## Suc-Ala-Ala-Phe-{AMC}
[1]
  Retention: None
[2]
  Release: None

## Ser-Tyr-{AFC}
[1]
  Retention: None
[2]
  Release: None

## (Ala-Ala-Phe)2-R110 [(Ala-Ala-Phe) 2 R110]
[1]
  Retention: None
[2]
  Release: ++++

## H-Gly-Gly-{AMC}
[1]
  Retention: None
[2]
  Release: None

## C[C@H](CCC(=O)NCCC[N+](C)(C)CCCS(=O)(=O)[O-])[C@H]1CC[C@H]2[C@@H]3[C@H](O)C[C@@H]4C[C@H](O)CC[C@]4(C)[C@H]3C[C@H](O)[C@]12C [CHAPS]
[3]
  effect on proteasome or luciferase activity: negative effects

## Cc1cc(=O)oc2cc(NC(=O)[C@@H](N)Cc3ccc(O)cc3)ccc12 [H-Tyr-AMC]
[1]
  Retention: ++
[2]
  Release: None

## Suc-Leu-Leu-Val-Tyr-AMC (Suc-LLVY-{AMC}; SMILES Cc1cc(=O)oc2cc(NC(=O)[C@H](Cc3ccc(O)cc3)NC(=O)[C@@H](NC(=O)[C@H](CC(C)C)NC(=O)[C@H](CC(C)C)NC(=O)CCC(=O)O)C(C)C)ccc12)
[1]
  Retention: None
[2]
  Release: +
